Target: human DPP1 enzyme (Homo sapiens, UniProt P53634)
Experiment: Human DPP1 Enzyme IC50 Assay
Format: biochemical
Design: was first proteolytically processed into its mature form using recombinant human cathepsin L; purchased R&D Systems
Settings: activated recombinant human DPP1, 400 μM H-Gly-Arg-AMC, 10 minutes pre-incubation at 37° C., pH 6.0; average of n runs; read-out: Avg. IC50 (Human DPP1 enzyme IC50 value ranges)
Method: Example 97. Human DPP1 Enzyme IC50 Assay
Recombinant human DPP1 enzyme (R&D Systems; Minneapolis, MN) was first proteolytically processed into its mature form using recombinant human cathepsin L (R&D Systems) in a buffer consisting of 20 mM citric acid pH 4.5, 150 mM NaCl, 1 mM EDTA and 10 mM DTT. Test articles were applied to activated human DPP1 enzyme in Assay Buffer (25 mM MES pH 6.0, 50 mM NaCl, 5 mM DTT) in a total reaction volume of 125 μL. 25 μL of compound in Assay Buffer plus 5% DMSO was first added to 50 μL of activated human DPP1 enzyme at a concentration of 1 ng/μL and allowed to pre-incubate for 10 minutes at 37° C. after which 50 μL of 1000 μM H-Gly-Arg-AMC substrate (Bachem; St. Torrance, CA) was added, giving final substrate concentration of 400 μM and a final DMSO concentration of 1%. Substrate cleavage was measured for 90 minutes at 37° C., with fluorescence at Excitation/Emission 350/450 nm measured every 5 minutes. DPP1 concentration was interpolated based on its activity relative to a standard curve of activated human recombinant DPP1 enzyme. IC50 values for each compound were calculated via the XLFit (IDBS Version 5.3.1.3) Add-On to Microsoft Excel using the four parameter fit equation y={A+[(B−A)]/[1+((C/x)^D)]}, which appears as equation number 205 (4 Parameter Logistic Model or Sigmoidal Dose-Response Model) in XLFit. Default constraints were used for each Parameter. IC50 was defined as the compound concentration at which 50% of enzyme activity was inhibited when compared to the no-compound control.

Sequence of human DPP1 enzyme (P53634 25-134 limits assumed): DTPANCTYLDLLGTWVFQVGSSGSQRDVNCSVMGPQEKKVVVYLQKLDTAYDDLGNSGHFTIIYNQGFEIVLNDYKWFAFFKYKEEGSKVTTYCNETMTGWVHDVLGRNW
Sequence of human DPP1 enzyme (P53634 231-394 limits assumed): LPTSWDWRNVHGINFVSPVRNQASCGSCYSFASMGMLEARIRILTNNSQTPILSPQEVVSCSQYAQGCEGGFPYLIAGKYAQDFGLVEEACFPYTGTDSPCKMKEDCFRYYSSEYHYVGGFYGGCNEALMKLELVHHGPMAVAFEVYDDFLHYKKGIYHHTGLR
Sequence of human DPP1 enzyme (P53634 395-463 limits assumed): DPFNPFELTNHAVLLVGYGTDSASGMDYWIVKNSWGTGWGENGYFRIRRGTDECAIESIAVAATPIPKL

Row | IC50 [nM] | Compound
1 | > 15 | N#Cc1ccc2c(c1)COc1cc(C[C@@H](C#N)NC(=O)[C@@H]3CNCCCCO3)c(F)cc1-2 (single isomer, unassigned) [Compound B8]
2 | > 15 | N#Cc1ccc(C23CCC(C[C@@H](C#N)NC(=O)[C@@H]4CNCCCO4)(CC2)CC3)cc1 [Compound 1]
3 | > 15 | N#Cc1ccc(C23CC(C[C@@H](C#N)NC(=O)[C@@H]4CNCCCO4)(C2)C3)cc1 [Compound 2]
4 | > 15 | N#C[C@H](Cc1ccc(C23CC(C#N)(C2)C3)cc1)NC(=O)[C@@H]1CNCCCO1 [Compound 3]
5 | > 15 | N#C[C@H](Cc1ccc(-c2ccnc3nc(O)oc23)cc1)NC(=O)[C@@H]1CNCCCO1 [Compound A13, (2S)—N-[(1S)-1-cyano-2-(4-{2-hydroxy-[1,3]oxazolo[4,5-b]pyridin-7-yl}phenyl)ethyl]-1,4-oxazepane-2-carboxamide]
6 | > 15 | N#C[C@H](Cc1ccc(-c2cc3c(O)ccnn3c2)cc1)NC(=O)[C@@H]1CNCCCO1 [Compound A15, (S)—N—((S)-1-cyano-2-(4-(4-hydroxypyrrolo[1,2-b]pyridazin-6-yl)phenyl)ethyl)-1,4-oxazepane-2-carboxamide]
7 | > 15 | N#C[C@H](Cc1ccc(-c2cnc3[nH]ccc3n2)cc1)NC(=O)[C@@H]1CNCCCO1 [Compound A16, (2S)—N-[(1S)-1-cyano-2-(4-{5H-pyrrolo[2,3-b]pyrazin-2-yl}phenyl)ethyl]-1,4-oxazepane-2-carboxamide]
8 | > 15 | N#C[C@H](Cc1ccc(-c2cncc3[nH]c(=O)[nH]c23)cc1)NC(=O)[C@@H]1CNCCCO1 [Compound A17, (2S)—N-[(1S)-1-cyano-2-(4-{2-oxo-1H,3H-imidazo[4,5-c]pyridin-7-yl}phenyl)ethyl]-1,4-oxazepane-2-carboxamide]
9 | 5 to 15 | CO[C@H]1CCO[C@H](C(=O)N[C@H](C#N)Cc2cnc(-c3ccc4c(F)nn(C)c4c3)s2)CNC1 [Compound A170]
10 | > 15 | Cn1nc(F)c2ccc(-c3ncc(C[C@@H](C#N)NC(=O)[C@@H]4CNCC[C@@H](F)CO4)s3)cc21 [Compound A172]
11 | > 15 | CN1Cc2cc(F)ccc2-c2ccc(C[C@@H](C#N)NC(=O)[C@@H]3CNCCCO3)cc2C1=O [Compound B3, (2S)—N-[(1S)-1-cyano-2-{13-fluoro-9-methyl-8-oxo-9-azatricyclo[9.4.0.0^{2,7}1]pentadeca-1(11),2,4,6,12,14-hexaen-5-yl}ethyl]-1,4-oxazepane-2-carboxamide]
12 | > 15 | Cn1c(=O)oc2ccc3c(c21)COc1cc(C[C@H](C#N)NC(=O)[C@@H]2CNCCCO2)c(F)cc1-3 [Compound C2-B]
13 | > 15 | CN1CCC2(CCc3ccc4c(c32)COc2cc(CC(C#N)NC(=O)[C@@H]3CNCCCO3)c(F)cc2-4)CC1 (stereo partly drawn) [Compound C4, (2S)—N-(1-cyano-2-{8-fluoro-1′-methyl-2,4-dihydro-1H-spiro[indeno[4,5-c]chromene-3,4′-piperidin]-7-yl}ethyl)-1,4-oxazepane-2-carboxamide]
14 | < 5 | CO[C@H]1CCO[C@H](C(=O)N[C@H](C#N)Cc2ccc(-c3ccc4cnn(C5CCN(C)CC5)c4c3)cc2F)CNC1 [Compound H1]
15 | 5 to 15 | CO[C@H]1CCO[C@H](C(=O)N[C@H](C#N)Cc2ccc(-c3ccc4cnn(C5CCN(C6COC6)CC5)c4c3)cc2F)CNC1 [Compound H2]

Reference: patent US20260008760A1, “DIPEPTIDYL PEPTIDASE 1 INHIBITORS AND USES THEREOF” (Insmed Incorporated, priority 2024, published 2026)
